This note sets out measurements from patent US6583154B1, “Compounds and methods which modulate feeding behavior and related diseases” (Amgen Inc., priority 1998, dated 2003).

A value given as a limit tells only on which side of the number the result lay.

With `Cc1nc(N2CCN(c3ccccc3)CC2)c2[nH]c(-c3ccccc3)cc2n1.Cl` (hydrate or solvate), the melting point was in the range of 232 to 234.5 °C.
In turn, `Cc1nc(N2CCCCC2)c2[nH]c(-c3cc(F)ccc3F)cc2n1.Cl` (hydrate or solvate) came in with a melting point of 279 to 281 °C.
For `Cc1nc(N2CCCCC2)c2[nH]c(-c3ccccc3Cl)cc2n1.Cl` (hydrate or solvate) the value was 240 to 241.5 °C.
For `Cc1nc(N2CCCCC2)c2[nH]c(-c3ccc(-c4ccc(F)c(Cl)c4)o3)cc2n1.Cl` (hydrate or solvate) the value was more than 280 °C.
For `COc1ccccc1-c1cc2nc(C)nc(N3CCCCC3)c2[nH]1.Cl` (hydrate or solvate) the value was 261 to 263 °C; for `COc1cccc2cc(-c3cc4nc(C)nc(N5CCCCC5)c4[nH]3)oc12.Cl` (hydrate or solvate), more than 280 °C; for `Cc1nc(N2CCCCC2)c2[nH]c(C)c(Cc3ccccc3)c2n1.Cl` (hydrate or solvate), > 240 °C (dec.).
Consider `Cl.c1ccc(-c2cc3ncnc(N4CCCCC4)c3[nH]2)nc1` (hydrate or solvate), for which the melting point fell in the range of 279 to 280 °C.
For `CCc1nc(N2CCCCC2)c2[nH]c(-c3ccccc3)cc2n1.Cl` (hydrate or solvate) [Example 68c, 2-Ethyl-6-phenyl-4-piperidylpyrrolo[3,2-d]pyrimidine Hydrochloride Monohydrate] the value was 286 to 288 °C (dec.); for `Cc1nc(N2CCCCC2)c2[nH]c(-c3cccc(Cl)c3)cc2n1.Cl` (hydrate or solvate) [Example 70e, 6-(3-Chlorophenyl)-2-methyl-4-piperidylpyrrolo[3,2-d]pyrimidine Hydrochloride Monohydrate], 244.5 to 246 °C (dec.).
As for `COc1ccc(-c2cc3nc(C)nc(N4CCCCC4)c3[nH]2)cc1.Cl` (hydrate or solvate) [Example 71e, 4-Methoxy-1-(2-methyl-4-piperidylpyrrolo[4,5-d]pyrimidin-6-yl)benzene Hydrochloride Monohydrate], the melting point is 267.5 to 268 °C (dec.).
Then `Cc1nc(N2CCCCC2)c2[nH]c(-c3ccc(O)cc3)cc2n1.Cl` (hydrate or solvate) [Example 72, 2-methyl-4-piperidyl-6-(4-hydroxyphenyl)pyrrolo[3,2-d]pyrimidine], with > 300 °C (dec.); and `Cc1nc(N2CCCCC2)c2[nH]c(-c3ccccn3)cc2n1.Cl` (hydrate or solvate) [Example 77, 2-Methyl-4-piperidyl-6-(2-pyridyl)pyrrolo[3,2-d]pyrimidine Hydrochloride Hydrate], with more than 280 °C; and `Cc1nc(N2CCCCC2)c2[nH]c(C3CCCCC3)cc2n1.Cl` (hydrate or solvate) [Example 80d, 6-Cyclohexyl-2-methyl-4-piperidylpyrrolo[3,2-d]pyrimidine Hydrochloride Hydrate], with more than 280 °C.
For `Cc1nc(N2CCCCC2)c2[nH]c(C34C[C@H]5C[C@@H](C3)C[C@@H](C4)C5)cc2n1.Cl` (hydrate or solvate) [Example 81d, 6-Adamantanyl-2-methyl-4-piperidylpyrrolo[3,2-d]pyrimidine Hydrochloride Monohydrate] the value was more than 280 °C; for `Cc1nc(N2CCCCC2)c2[nH]c(-c3cc4ccccc4o3)cc2n1.Cl` (hydrate or solvate) [Example 85, 2-(2-Methyl-4-piperidylpyrrolo[4,5-d]pyrimidin-6-yl)benzo[b]furan Hydrochloride Monohydrate], more than 280 °C.
For `Cc1nc(N2CCCCC2)c2[nH]c(-c3ccccc3)c(C)c2n1.Cl` (hydrate or solvate) [Example 90, 2,7-Dimethyl-6-phenyl-4-piperidylpyrrolo[3,2-d]pyrimidine Hydrochloride Monohydrate] the value was more than 280 °C.
Molecule `Cc1nc(N2CCCCC2)c2[nH]c(C(C)(C)C)cc2n1.Cl` (hydrate or solvate) [Example 97, 6-(tert-Butyl)-2-methyl-4-piperidylpyrrolo[3,2-d]pyrimidine Hydrochloride Hydrate] had a melting point of 256 to 258 °C.
Then `Cc1nc(N2CCCCC2)c2[nH]c(-c3ccn(S(=O)(=O)c4ccccc4)c3)cc2n1.Cl` (hydrate or solvate) [Example 101, 3-(2-Methyl-4-piperidylpyrrolo[4,5-d]pyrimidin-6-yl)-1-(phenylsulfonyl)pyrrole Hydrochloride Hydrate], with 183 to 185.5 °C; and `Cc1nc(N2CCCCC2)c2[nH]c(-c3ccccc3F)cc2n1.Cl` (hydrate or solvate) [Example 102, 6-(2-Fluorophenyl)-2-methyl-4-piperidylpyrrolo[3,2-d]pyrimidine Hydrochloride Monohydrate], with 287 to 289 °C; and `Cc1nc(N2CCCCC2)c2[nH]c(-c3cccc(F)c3)cc2n1.Cl` (hydrate or solvate) [Example 103, 6-(3-Fluorophenyl)-2-methyl-4-piperidylpyrrolo[3,2-d]pyrimidine Hydrochloride Monohydrate], with more than 285 °C.
With `Cc1nc(N2CCCCC2)c2[nH]c(C)cc2n1.Cl` (hydrate or solvate) [Example 104, 2,6-Dimethyl-4-piperidylpyrrolo[3,2-d]pyrimidine Hydrochloride Hydrate], the melting point lay within 244 to 245.5 °C.
`Cc1nc(N2CCCCC2)c2[nH]c(-c3cccc(C(F)(F)F)c3)cc2n1.Cl` (hydrate or solvate) [Example 107, 2-Methyl-4-piperidyl-6-[3-(trifluoromethyl)phenyl]pyrrolo[3,2-d]pyrimidine Hydrochloride Monohydrate] displayed a melting point of 241 to 243 °C.
As to `Cc1nc(N2CCCCC2)c2[nH]c(-c3cc(C)oc3C)cc2n1.Cl` (hydrate or solvate) [Example 108, 2,5-Dimethyl-3-(2-methyl-4-piperidylpyrrolo[4,5-d]pyrimidin-6-yl)furan Hydrochloride Monohydrate], the melting point was in the range of 238 to 240 °C.
Turning to `Cc1nc(N2CCCCC2)c2[nH]c(-c3ccc(C(F)(F)F)cc3)cc2n1.Cl` (hydrate or solvate) [Example 111, 2-Methyl-4-piperidyl-6-[4-(trifluoromethyl)phenyl]pyrrolo[3,2-d]pyrimidine Hydrochloride Hydrate], the melting point fell in the range of 278 to 280 °C.
Then `Cc1nc(N2CCCCC2)c2[nH]c(-c3ccc4c(c3)OCO4)cc2n1.Cl` (hydrate or solvate) [Example 114, 5-[2-Methyl-4-piperidylpyrrolo[4,5-d]pyrimidin-6-yl]-2H-benzo[d]1,3-dioxolane Hydrochloride Monohydrate], with more than 280 °C; and `Cc1nc(N2CCCCC2)c2[nH]c(-c3cc(F)c(F)c(F)c3)cc2n1.Cl` (hydrate or solvate) [Example 116, 2-Methyl-4-piperidyl-6-(3,4,5-trifluorophenyl)pyrrolo[3,2-d]pyrimidine Hydrochloride Hydrate], with more than 280 °C.
For `Cc1nc(N2CCCCC2)c2[nH]c(-c3ccc(Cl)c(Cl)c3)cc2n1.Cl` (hydrate or solvate) [Example 118, 6-(3,4-Dichlorophenyl)-2-methyl-4-piperidylpyrrolo[3,2-d]pyrimidine Hydrochloride Monohydrate] the value was 265 to 268 °C.

For orientation: melting point means the temperature, or range, at which the solid turns liquid.
